Data from US20160272937A1, “METHODS OF GENERATING INTERMEDIATE MESODERM CELLS FROM HUMAN PLURIPOTENT STEM CELLS” (THE BRIGHAM AND WOMEN'S HOSPITAL, INC., priority 2013, published 2016).

Key:
[1] = tested on: human pluripotent stem cells (hPSCs); experiment: Quantitative RT-PCR gene expression in CHIR-treated hPSCs; format: cell-based
Method: Total RNA is harvested and isolated from cells using the RNeasy Mini Kit (Qiagen). 1 μg RNA is used for reverse transcription with the M-MLV Reverse Transcriptase system (Promega), or 500 ng RNA is used for High Capacity cDNA Reverse Transcription Kits (Applied Biosystems). RT-PCR reactions can be run in duplicate using cDNA (diluted 1:10), 300 or 400 nM forward and reverse primers, and iQ SYBR Green Supermix (Biorad) or iTAQ SYBR Green Supermix (Biorad). Quantitative RT-PCR is performed using the iQ5 Multicolor Real-Time PCR Detection System (Biorad). Samples can be run with two technical replicates to ensure precision and accuracy. β-actin can be used as a housekeeping gene. […] In parallel, the induction of the mesendoderm state was accompanied by the loss of pluripotency as reflected by a reduction of OCT4 and NANOG mRNA (FIG. 1D). […] As cells migrate through the primitive streak during development, they express SNAIL, downregulate E-cadherin expression, upregulate N-cadherin expression, and undergo an epithelial-mesenchymal transition (“EMT”). […] This was associated with EMT with waves of cells migrating away from the periphery of differentiating colonies between 36-48 hours of differentiation (FIG. 1G), and a switch in cadherin expression from E-cadherin to N-cadherin (FIG. 1H).

hPSC-derived SIX2+ cells = experiment: Response of hPSC-derived SIX2+ cells to canonical Wnt signaling (CHIR); format: cell-based, human
Method: To test the competence of hPSC-derived SIX2+ cells to respond to canonical Wnt signaling, the Inventors treated cells on day 6 of differentiation with […] CHIR for 24 hours, followed by withdrawal of CHIR. […] Furthermore, hPSC-derived SIX2+ cells explanted into dissociated-reaggregated mouse embryonic kidneys formed organizing clusters of cells that expressed LTL (FIG. 7I). The Inventors therefore concluded that the ability of hPSCderived PAX2+LHX1+ cells to be differentiated into cells expressing multiple markers of kidney CMand that could form tubule like structures in response to Wnt signaling was consistent with the behavior and function of nephrogenic IM cells.

[2] = tested on: hPSCs (hESC and hiPSC lines); experiment: Intermediate mesoderm differentiation: PAX2/LHX1 immunostaining; format: cell-based, human; conditions: CHIR pre-treatment 48 hours compared to 24 or 36 hours, all time points
Method: Mesendoderm differentiation—the media is changed to Advanced RPMI (A-RPMI, Invitrogen) supplemented with 1×L-glutamax and 1× penicillin/streptomycin and either CHIR99021 (CHIR, Stemgent), human Wnt3a (R&D systems), and/or human activin A (R&D systems) at the doses described. Definitive endoderm differentiation—cells are treated with A-RPMI+1×L-glu+1×P/S+5 μM CHIR for 24 hours, then A-RPMI+1×Lglu+1×P/S+100 ng/mL of activin A for 2-3 days. Hepatic differentiation—cells at the definitive endoderm stage are treated with A-RPMI+1×L-glu+1×P/S+1×B27 supplement (Invitrogen)+20 ng/mL BMP-4 (R&D systems)+10 ng/mL FGF2 (Invitrogen) for 5 days, then A-RPMI+1×L-glu+1×P/S+1×B27+10 ng/mL HGF for 5 days, then HCM Hepatocyte Culture Medium (Lonza) supplemented with 20 ng/mL Oncostatin M and 10 ng/mL HGF (Peprotech) for 5 days. Pancreatic differentiation—cells at the definitive endoderm stage are treated with DMEM/F12+2% FBS (Hyclone)+50 ng/mL FGF7 (R&D systems) for 2 days, then high-glucose DMEM (Mediatech)+1% B27+2 μM retinoic acid (Sigma)+0.25 μM KAAD cyclopamine (EMD Millipore)+100 ng/mL recombinant human Noggin (R&D systems) for 4 days, then high-glucose DMEM+1% B27+100 ng/mL Noggin+300 nM indolactam V (Stemgent)+1 μM ALK5 inhibitor II (Axxora) for 4 days. Anterior foregut endoderm differentiation—cells at the definitive endoderm stage are treated with DMEM/F12+1×L-glu+1×B27+200 ng/mL Noggin+10 μM SB431542 (Stemgent) for 3 days. For hindgut endoderm differentiation, cells at the definitive endoderm stage were treated with A-RPMI+1×L-glu+1×P/S+2% FBS+500 ng/mL FGF4 (R&D systems)+5 μM CHIR for 4 days. […]
Nuclei can be counterstained with DAPI (Sigma). […] Immunofluorescence is visualized using an inverted fluorescence microscope (Nikon Eclipse Ti, Tokyo, Japan). Quantification is performed by counting a minimum of five random fields at 10× magnification. […]

[3] = 5 mM CHIR for 24 hours on day 6, read on day 8, compared with cells not treated with CHIR

Structure (SMILES): Cc1c[nH]c(-c2cnc(NCCNc3ccc(C#N)cn3)nc2-c2ccc(Cl)cc2Cl)n1 [CHIR99021]
- BMP-4 transcript expression ([1]; CHIR for 24 or 48 hours, day 4, compared to DMSO-treated controls): significantly upregulated
- OCT4 and NANOG mRNA ([1]; CHIR time course): reduction
- SNAI1 expression ([1]; as early as 24 hours after treatment): upregulation
- expression of primitive streak genes (BRACHY, MIXL1, EOMES, FOXA2, GSC) ([1]; within 24 hours of treatment, peak 36-48 hours, decreased by 72 hours): rapidly upregulated
- SIX2 expression (hPSC-derived SIX2+ cells; [3]): downregulation of SIX2 expression
- expression of proximal tubule marker LTL (hPSC-derived SIX2+ cells; [3]): increased expression
- cell morphology (hPSC-derived SIX2+ cells; within 24 hours of 5 mM CHIR treatment): formation of tubular-like structures
- PAX2 expression [2]: less PAX2 expression
